Data set [1] is described as follows: Biodistribution of butyrate after oral gavage (LC-MS/MS quantification in plasma and organs). To be noted: for butyrate level in the liver / butyrate level in the mesenteric LNs: 3 hr and 6 hr post oral administration; for butyrate level in the spleen: 3 hr post oral administration. Format: in vivo, C57BL/6J mice. On the procedure: The specific-pathogen-free (SPF) female C57BL/6J mice were orally administered with 50.4 mg NaBut, 80 mg SerBut, 85.6 mg ThrBut (all containing equivalent 40 mg butyrate), or PBS. At 0.5 hr or 3 hr post administration, blood was collected by cheek bleeding. At 3 hr or 6 hr post administration, the mice were anesthetized under isoflurane and transcardially perfused with at least 30 ml phosphate-buffered saline (PBS) containing 1 mM EDTA. Organs including liver, mesenteric lymph nodes (mLNs), brain, spinal cord, and spleen were collected and frozen in dry ice immediately, and then transfer to −80° C. until further processing.
1:1 v/v acetonitrile (ACN) to water was used to extract butyrate from the plasma or organs. Plasma was mixed 1:1 with ACN/water solution, and then centrifuged to remove the denatured proteins. Organs were weighed and transferred to Lysing Matrix D tubes, and added with ACN/water 1:1 v/v solution followed by sample lysing using FastPrep-24 5G homogenizer (MP Biomedicals). The samples were then centrifuged, and the supernatant were collected for the measuring of butyrate.
Samples were prepared and derivatized as describe in the literature (5, 6). 3-nitrophenylhydrazine (NPH) stock solution was prepared at 0.02 M in water:acetonitrile 1:1 v/v. EDC stock solution (with 1% pyridine added) was prepared at 0.25 M in water:acetonitrile 1:1 v/v. 4-methylvaleric acid was added as internal standard. Samples were mixed with NPH stock and EDC stock at 1:1:1 ratio by volume. The mixture was heated by heating block at 60° C. for 30 min. Samples were then filtered through […] and transferred into HPLC vials and stored at 4° C. before analysis.
The Agilent 6460 Triple Quad MS-MS was used to detect the derivatized butyrate.
Both derivatized butyrate-NPH and 4-methylvaleric-NPH were detected in negative mode. Column: ThermoScientific C18 4.6×50 mm, […], at room temperature. Mobile phase A: water with 0.1% v/v formic acid. Mobile phase B: acetonitrile with 0.1% v/v formic acid. Injection volume: 5.0 μL. Flow rate: 0.5 mL/min. Gradient of solvent: 15% mobile phase B at 0.0 min; 100% mobile phase B at 3.5 min; 100% mobile phase B at 6.0 min; 15% mobile phase B at 6.5 min. The MS conditions were optimized on pure butyrate-NPH or 4-methylvaleric-NPH at 1 mM. The fragment voltage was 135 V and collision energy was set to 18 V. Multiple reaction monitoring (MRM) of 222→137 was assigned to butyrate, and MRM of 250→137 was assigned to 4-methylvaleric acid as internal standard. The ratio between MRM of butyrate and 4-methylvaleric acid was used to quantify the concentration of butyrate. The final butyrate content is each organ is normalized by the organ weight.

The nature of data set [2]: Water solubility (statement). Format: physicochemical.
For data set [3], the system named is experimental autoimmune encephalomyelitis (EAE). It is filed as in vivo, C57BL/6 mice. The following applies: for Th17 cells (RORγt+% of CD4+ T cells) in the spinal cord: day 20, compared to the PBS group. The source says: C57BL/6 female mice (8 weeks old) were purchased from Charles River Laboratories and housed in the animal facility at the University of Chicago for 2 weeks before immunization. All experiments were approved by the Institutional Animal Care and Use Committee of the University of Chicago
Female C57BL/6 mice at the age of week 10 were subcutaneously immunized at the dorsal flanks with an emulsion of MOG35-55 in complete Freund's adjuvant (MOG35-55/CFA Emulsion, Hooke Laboratories) on day 0, followed by i.p. administration of pertussis toxin in PBS on both day 0 and day 1. The mice were treated with PBS or serine butyrate (0.6 mg/g per dose) twice daily from day 2 to day 19. Another group of mice were treated with PBS once (in the morning) and serine butyrate (0.6 mg/g) once (in the afternoon) daily. The development of EAE was monitored and clinical scores were measured daily from day 7 to day 20. The clinical scores were determined based on the Hooke Laboratories scoring criteria (found online at hookelabs.com/services/cro/eae/MouseEAEscoring.html). In brief, EAE clinical scores ranged from a score of 0, corresponding to no obvious changes in motor function compared to non-immunized mice, to a score of 4, corresponding to limp tail and minimal or no movement of hind and/or fore limbs. On day 20, mice from the twice daily PBS or serine butyrate gavage groups were sacrificed. Their blood was collected through cardiac puncture, and spleen, spinal cord, mesenteric lymph nodes (LNs), central nervous system(CNS)-draining LNs (dLNs, including cervical LNs and iliac LNs) were harvested for the immunostaining followed by the flow cytometry analysis. The major cytokines from the plasma and spinal cord after homogenization were analyzed by the LegendPlex (BioLegend).

Where [4] appears, read: 0.5 hr and 3 hr after oral administration (both time points).
Setting [5] is: oral, compared to mice treated with NaBut and ThrBut (PBS and sodium butyrate).
Setting [6] is: day 20, flow cytometry, twice daily vs PBS.
The mark [7] stands for this setting: day 20, flow cytometry, twice daily vs PBS, listed as Serine butyrate.
Where [8] appears, read: day 20, flow cytometry, twice daily vs PBS, listed as serine butyrate.

Each structure is given as a SMILES string. “Also recorded” adds a separate entry of the source. Read-outs that look alike come from different tables or passages of the source.

Regarding `CCCC(=O)OC(C)[C@H](N)C(=O)O` (stereo in doubt) [ThrBut, O-butyryl L-threonine], the “butyrate level in the plasma” value in data set [1] (setting [4]) is “did not show high level of butyrate”. For the same compound, in data set [1], the “butyrate level in the liver” value is reported as “high level of butyrate”, the “butyrate level in the mesenteric LNs” value is on record as “high level of butyrate; also recorded: higher accumulation” and the “butyrate level in the spleen” value is on record as “higher level of butyrate; also recorded: higher accumulation”. In data set [2], the water solubility result is “water soluble”.
On to `CCCC(=O)[O-].[Na+]` [NaBut, sodium butyrate, reference compound], for which, in data set [1] (setting [4]), the “butyrate level in the plasma” value is given as “did not show high level of butyrate”.
Turning to `CCCC(=O)OC[C@H](N)C(=O)O` [SerBut, O-butyryl L-serine], in data set [1] (0.5 hr after oral administration, equivalent 40 mg butyrate), the “butyrate level in the plasma” value is recorded as “dramatically increased”. Moreover, the “butyrate level in the plasma” value in data set [1] (3 hr after oral administration, equivalent 40 mg butyrate) was “dropped significantly”. Moreover, in data set [1], the “butyrate level in the liver” value is given as “high level of butyrate”, the “butyrate level in the mesenteric LNs” value is “high level of butyrate; also recorded: higher accumulation” and the “butyrate level in the spleen” value was “higher level of butyrate; also recorded: higher accumulation”. For the same compound, in data set [1] (setting [5]), the “butyrate level in brain” value is recorded as “significantly enhanced; also recorded: significantly increased” and the “butyrate level in spinal cord” value was “significantly enhanced; also recorded: significantly increased”. Besides, the “severity of EAE disease development (clinical score)” value in data set [3] (0.6 mg/g per dose oral, twice daily day 2-19, vs PBS, listed as Serine butyrate) is “attenuates”. In data set [3] (0.6 mg/g twice daily vs once daily), the “dose regimen comparison in EAE: twice daily vs single daily dose” value is “performed better than a single dose”. Besides, the body weight loss entry in data set [3] (EAE mice treated orally) is on record as “did not observe a significant body weight loss”. In addition, the “MHCII expression (gMFI) on dendritic cells and macrophages in the mesenteric LNs” value in data set [3] (day 20, compared to PBS-treated mice) is listed as “significantly lower”. Besides, the “Th17 cells (RORγt+% of CD4+ T cells) in the spinal cord” value in data set [3] (listed as Serine butyrate) is given as “reduced”. The “Th17 cells (RORγt+% of CD4+ T cells) in the spinal cord” value in data set [3] (listed as serine butyrate) is reported as “less Th17 cells”. Further, in data set [3] (setting [6]), the “CD80+% and CD86+% of CD11c hi dendritic cells in the spinal cord” value was “significant reduction”; the “cell surface MHCII expression in CD11c hi dendritic cells and CD11b+CD11c- monocytes, spinal cord” value is given as “similarly marked reduction”. For the same compound, in data set [3] (setting [7]), the “MHCII positive dendritic cells and macrophages in the mesenteric LNs” value is reported as “suppresses”; the “immune cell infiltration into the spinal cord (CD11b+, CD11b+CD11c-, F4/80+CD11b+ cells)” value is on record as “inhibits”. Moreover, in data set [3] (setting [8]), the “MHCII positive dendritic cells and macrophages in the mesenteric LNs” value is recorded as “significant reduction”; the “immune cell infiltration into the spinal cord (CD11b+, CD11b+CD11c-, F4/80+CD11b+ cells)” value is given as “significantly suppressed”. In data set [3] (day 20, homogenate supernatant normalized by total protein), the “IFNγ in the spinal cord” value was “minimal IFNγ”. For the same compound, in data set [3] (day 20, twice daily vs PBS), the “Foxp3+CD8+ Tregs in the mesenteric LNs” value was “significant induction” and the “regulatory T cells in the spleen (Foxp3+ or Foxp3+CD25+ of CD4+ T cells)” value is “significantly increased”. Also, the “EAE clinical score of the majority of mice” value in data set [3] (twice daily 0.6 mg/g, score scale 0-4) is given as “below 1.0”. In addition, the water solubility result in data set [2] is given as “water soluble”.
As for `CCCC(=O)Oc1ccc(C[C@H](N)C(=O)O)cc1` [TyrBut, O-butyryl L-tyrosine], the water solubility entry in data set [2] was “not highly soluble”.

The values above are taken from patent US20240207213A1, “METHODS AND COMPOSITIONS FOR TREATING DISORDERS WITH ORAL SYSTEMICALLY BIOAVAILABLE BUTYRATE CONJUGATES” (THE UNIVERSITY OF CHICAGO, priority 2021, published 2024).
